For one series, the system named is FIBCD1-KO U87 cell line. Conditions: 500 nM, FIBCD1-KO U87 cells, crystal violet. An excerpt:
(§1) Crystal violet staining is a cell viability test used to determine if a drug or molecule is killing cells based on the difference in cell number from the untreated control. U87 cells are an adherent cell line if they are alive and healthy, they attach securely to the bottom of the petri dish. Herein we passaged U87 cells into a 96-well plate and made quadruplets for each concentration of the drug we planned to use. After staining the cells that remained after treatment with both the drug and the EPP6-GEM conjugate, the cells were then photographed with a cell phone and compared to the control wells (FIGS. 12A-13C).

Series [1] relates to U87 cells. Conditions: 500 nM, crystal violet.
Source text: as §1

Another series has as its system U87. In words: Confocal microscopy for internalization of EPP6-GEM. It counts as cell-based, human. Conditions: 500 nM, U87 cells. The procedure:
After purification of this conjugate, EPP6-GEM was dissolved in DMSO and diluted to 500 nM in full media (DMEM) and administered to the immortalized glioblastoma cell line U87. These cells were monitored using Confocal Microscopy for internalization of the conjugate. FIGS. 11A-11C show three images of U87 cells with different combinations of dyes internalized. […] EPP6-GEM has been outfitted with a Rhodamine B dye. […] Cell viability experiments were carried out to determine if the conjugate can kill cells at a similar rate to the free drug or at an improved rate.

For a further series, the system named is MDCK cells. To be noted: MDCK monolayer, trans-well, three hours.
The test system of series [2] is U87 cells. In words: Colocalization of RB-EPP6 with mEmerald-caveolin and mEmerald-clathrin. It counts as cell-based, human. Conditions: transfected U87 cells, confocal. Here is the method: (§2) Confocal Imaging experiments. To image the cells, a Zeiss 880 inverted confocal laser scanning microscope (Carl Zeiss, Germany) was used. Image acquisition and analyses were carried out using the manufacturer's software (ZEN, Carl Zeiss). Quantification of fluorescence intensity in single cells was performed using Fiji software.
(§3) Plasmid transfection assays. 300 k U87 cells were seeded in the 35×10 mm dish for overnight culture. Plasmids (caveolin, 75 ng; clathrin, 100 ng; rab5, 100 ng; rab7a, 10 ng; caveolin-1 CRISPR/Cas9 KO, 3 μg; FIBCD1 CRISPR/Cas9 KO, 3 ug; Control CRISPR, 3 ug) were diluted with Plasmid Transfection Medium (sc-108062) to 50 μl. UltraCruz Transfection Reagent (Santa Cruz Biotechnology) was also diluted with Plasmid Transfection Medium to 50 μl. Plasmids and transfection reagent were mixed well and kept at room temperature for 20 min. Replace the cells with PS free medium and add the mixture to the cells, culture for another 24 h.

In series [3] the test system is U87 cells. In words: Confocal imaging of Dye-EPP uptake in U87 cells. It is filed as cell-based, human. Conditions: RB-tagged EPPs, U87 cells, confocal imaging, ranking among EPP1-7. The procedure:
as §2
Dye-EPP incubation. For general incubation, 300 k U87 cells were seeded in full medium containing 10% FBS and 1% PS in a 35×10 mm petri dish. The cells were incubated overnight in full medium. Stock solution of Dye-EPPs were made in DMSO to reach a concentration of 500 μM. Fresh cell culture medium was used to dilute the stock solution to 500 nM and replace the old medium on day 2. Cells were incubated with RB-EPPs for different time periods, followed by a one-time wash with phenol-free fresh culture medium before measurements.
Concentration gradient experiment. U87 Cells were incubated with RB-EPP 6 at different concentrations (20 nM, 200 nM, 2 μM, 20 μM, 50 μM and 100 μM). After wash with fresh medium once cells were examined by confocal imaging.

Series [4] has as its system U87 cells. The series is described as follows: RB-EPP6 uptake after caveolin CRISPR knockout. It counts as cell-based, human. To be noted: data not shown. The procedure:
as §3

Series [5] concerns U87 cells. In words: Intracellular trafficking of EPP6 conjugates (endosome markers, organelle trackers, time series, EB staining). It counts as cell-based, human. Here is the method: Time series experiment. U87 Cells were incubated with RB-EPP 6 at 500 nM for 1 h. After wash with fresh medium once, the cells were kept in the 5% CO2 incubator at 37° C. for different time durations (1 h, 2 h, 6 h and 24 h) before confocal imaging.
Organelle tracker colocalization experiment. Stock solution of trackers for mitochondria, lysosome and ER were diluted with cell culture medium into 100 nM, 500 nM and 4 μM respectively. RB-EPP 6 was added into each working solution at 500 nM. U87 cells were incubated with the both trackers and RB-EPP 6 for 1 h and then washed once before confocal imaging.
as §3
Ethidium bromide (EB) staining. U87 cells were incubated with 2 μg/ml EB with or without the conjugation of EPP6 for an hour, 3 hours and 6 hours respectively. After 1 h and the cells were washed with fresh phenol-free media once before confocal imaging.
Statistical analysis. Pearson's correlation coefficient was used to calculate correlation between RB and tracker channels in the organelle tracker experiment. Graph generation and statistical analyses were performed using Fiji software.

Series [6] relates to U87 cells. The series is described as follows: Temperature control comparison experiment (RB-EPP6 uptake at 37° C. and 4° C.). It counts as cell-based, human. To be noted: 500 nM, 1 h. The procedure:
as §2
Temperature control comparison experiment. U87 cells were kept in the cold room for half an hour before incubated with RB-EPP 6. After that, cells were incubated with RB-EPP 6 at 500 nM at 4° C. Cells in the control group were incubated at 37° C. After 1 h, cells were wash with fresh medium once respectively before confocal imaging.

The nature of the next series: Lipid binding assay. Conditions: liposomes, RB-EPP6 1 nM to 10 μM. The procedure: Lipid binding assay. 95% egg PC, 5% nitrobenzoxadiazole (NBD) were added to 1% cholesterol, PE, PG, ganglioside, SM and PA to make liposomes individually. RB-EPP 6 was diluted with HEPES buffer to different concentrations, ranging from 1 nM to 10 μM. For each lipid type, 400 μl liposomes of 50 μg/ml were added to 400 μl of each RB-EPP 6 concentration. The mixture was incubated at room temperature for 15 min. 80 μl of each condition was collected to measure the fluorescence intensity of NBD suing the Synergy H1 microplate reader.

For series [7] the following is noted: MDCK, MDCK monolayer, trans-well, three hours of incubation, 10 μM.
Experimental: (§4) MDCK transwell assay. 200 k MDCK cells were seeded in 200 μl in complete growth media to the apical side of a transwell insert (12-well 8 μm pore size Transwell-65 mm). In addition, 1 ml complete growth media is added to the basolateral chamber. […] Incubate the plate for 2-3 days at 37° C. with 5% CO2. The electrical resistance of MDCK transwell inserts was measured using EVOM Epithelial Voltohmmeter to measure the integrity of tight junctions the following two days. On day 3, serum free media was used to wash both the apical (200 μl) and basolateral (1 ml) wells three times. Cells were kept in a 37° C./5% CO2 cell incubator equilibrating for 15 min.
(§5) The assay was carried out in both apical to basolateral and basolateral to apical direction. […] For the assay with apical to basolateral direction, the apical chamber was replaced with 200 μl testing compounds. For the assay with basolateral to apical direction, the basolateral chamber was replaced with 1 ml testing compounds. Both plates were incubated in the cell culture incubator for 3 h. After that, 80 μl of the samples were collected from each chamber for RB fluorescence intensity reading using a Synergy H1 microplate reader.
Series [8] in a line: Octanol-water partition assay. It is filed as physicochemical. Here is the method:
Octanol-water partition assay. For each RB-EPP, pre-mix 250 μl of octanol with 250 μl of water in a 1.5 ml centrifuge tube. 2 μl of RB-EPP was added to the solution at the concentration of 500 μM. After vortex the mixture, centrifuge at the highest speed for 10 min to separate the octanol and water phases. Samples were collected from both phases and quantified by the Analytical HPLC separately.

The Papp is the rate of passage across a membrane or cell layer, normalised by area and donor concentration. A higher Papp goes with ready permeation.

The structures appear in SMILES notation. Entries after “also recorded” stand apart in the source; their conditions may differ. Starred links: 1 amine or outer side, 2 acyl side, 3 side chain; linkers in the order of their positions; H or OH if unused. Positions of bridges follow the written chain, without caps; N, C: chain ends. Non-standard residues stand in square brackets, D forms with d. Residues, ends and D or L forms follow the SMILES beside them. Triazole bridges read from a SMILES are 1,4-linked. ξ: configuration not given here. *: point of attachment. RhodamineB = CCN(CC)c1ccc2c(-c3ccccc3C(=O)*)c3ccc(=[N+](CC)CC)cc-3oc2c1; X1 = Nc1ccn([C@@H]2O[C@H](COC(=O)CCC(=O)*)[C@@H](O)C2(F)F)c(=O)n1; Lys(N3) = [N-]=[N+]=NCCCC[C@H](N)C(=O)O; ξLys(N3) = [N-]=[N+]=NCCCCC(N)C(=O)O; NMeGABA = CN(CCCC(=O)[*:2])[*:1]; dPra = C#CC[C@@H](N)C(=O)O; Pra = C#CC[C@H](N)C(=O)O

Experimental for MDCK cells: as §4, §5

Take `CCN(CC)c1ccc2c(-c3ccccc3C(=O)N(C)CCCC(=O)N[C@@H](CCCCNC(=O)CCC(=O)OC[C@H]3O[C@@H](n4ccc(N)nc4=O)C(F)(F)[C@@H]3O)C(=O)N[C@@H]3Cc4cn(nn4)CCCCC(C(N)=O)NC(=O)[C@H](CO)NC(=O)[C@H](Cc4ccc(O)cc4)NC(=O)[C@H](Cc4ccc(O)cc4)NC(=O)[C@H](CO)NC(=O)[C@H](Cc4ccc(O)cc4)NC3=O)c3ccc(=[N+](CC)CC)cc-3oc2c1` (some centres unmarked) [EPP6-GEM] (RhodamineB-[NMeGABA]K(X1)[dPra]YSYYS[ξLys(N3)]-NH2; triazole 3-9): the “cell killing compared with free drug” value in the series with FIBCD1-KO U87 cell line was “cannot perform significantly better than the free drug”; with U87 cells [1], “can kill the cells more effectively than the free drug”. In addition, the “internalization (Rhodamine B signal)” value in the series with U87 is on record as “some internalization is occurring”.

Regarding `CCN(CC)c1ccc2c(-c3ccccc3C(=O)N(C)CCCC(=O)N[C@H]3Cc4cn(nn4)CCCC[C@@H](C(N)=O)NC(=O)[C@H](CO)NC(=O)[C@H](Cc4ccc(O)cc4)NC(=O)[C@H](Cc4ccc(O)cc4)NC(=O)[C@H](CO)NC(=O)[C@H](Cc4ccc(O)cc4)NC3=O)c3ccc(=[N+](CC)CC)cc-3oc2c1` [RB-EPP6, RB-cy(YSYYS)] (RhodamineB-[NMeGABA][Pra]YSYYS[Lys(N3)]-NH2; triazole 2-8; N-terminus and C-terminus assumed), the “Papp relative to RB-TAT” value in the series on MDCK cells is listed as “more than twice that of RB-TAT”. Further, in the series on U87 cells [2], the “colocalization with mEmerald-caveolin” value is reported as “significantly overlapped” and the “colocalization with mEmerald-clathrin” value was “no overlap”. Besides, in the series on U87 cells [3], the “ability to enter the cells (intracellular fluorescence)” value was “best performing”. The “uptake after CRISPR caveolin” value in the series on U87 cells [4] is listed as “decreased”. Besides, the “localization in early endosomes (Rab5)” value in the series with U87 cells [5] (EGFP-Rab5, after 15-min) was “appeared in distinct Rab5-coated vesicles”. Moreover, in the series on U87 cells [5] (MitoTracker, ERTracker), the “trafficking into mitochondria or endoplasmic reticulum” value is “did not traffic into the mitochondria or the endoplasmic reticulum”. The “localization in lysosomes (LysoTracker)” value in the series with U87 cells [5] (after 3 hours) is “some RB-EPP6 signals appeared in lysosomes”. In addition, in the series with U87 cells [5] (after 4 hours), the “retention in Rab7a+ vesicles” value was “a significant amount of RB-EPP6 remained inside Rab7a+vesicles”. Moreover, the remaining intracellular signal entry with U87 cells [5] (after 24 hours) was “some signals remained”. The “endosomal escape to cytosol” value in the series on U87 cells [5] (imaging) is “could escape from the endosomes and enter the cytosol”. The “time to traffic into late endosomes” value in the series on U87 cells [5] (mEmerald-Rab7a) is not above 30 min. Also, the “uptake at low temperature” value with U87 cells [6] was “no RB-EPP6 uptake; also recorded: no fluorescence signal in the cells”. For the same compound, the “interaction with lipid components” value in “Lipid binding assay” is “no appreciable interaction; also recorded: no significant interaction”. Besides, in series [7], the Papp amounted to 5.25 ×10⁻⁶ cm/s. Besides, in the series on U87, the “internalization (Rhodamine B signal)” value is “much higher signals”. In series [8], the “hydrophobicity (octanol partitioning)” value is “hydrophilic”.

Source of the values: patent US20240083949A1, “CELL PENETRATING PEPTIDE COMPOSITIONS AND METHODS THEREOF” (The Regents of the University of California, priority 2022, published 2024).
